According to patent publication US4778811A, “Pharmaceutical compositions of 2-methyl-thiazolo[4,5-c]quinoline” (EGIS Gyogyszergyar, priority 1985, dated 1988):

Experiments:
[1] = Screening test: one session conditioning / unconditioned reflex, glass cylinder jump; format: in vivo, rats; conditions: 0.025 mg/kg
Method: Was elaborated for studying learning and retention of rats during one session conditioning.
During conditioning rats are trained to jump onto the top of glass cylinder by the electric foot-shock (110 V). The escape reaction (unconditioned reflex, UR) is paired with a bell as conditioned stimulus. The criterion of learning is that conditioned reflex (CR) should be elicited 10 times with 10 s intervals without reinforcement. Retention of CR is taken positive when 24 h following the experiment CR can be elicited. In these experiments animals are distributed into 4 categories on the basis of their learning ability.

[2] = Effect on basal metabolism (O2 consumption); format: in vivo, rats; conditions: urethane 0.6 g/kg i.p., 30° C.
Method: The O2 consumption of rats was measured by the method of Issekutz and Issekutz (1952) at constant temperature (30° C.).
O2 consumption of the animals was expressed in ml/h and calculated for body surface, and given finally in ml/h/dm^2. Following injection of urethane and the basal O2 consumption was measured during 30 minutes. This was followed by the injection of the test substance and O2 consumption was registered immediately afterwards. The difference between the highest O2 consumption and the basal value was expressed in percent.
O2 consumption of the animals was calculated according to the following equation: [formula] V=2000 cm^3 P=pressure fall (mmHg)
T=period of measurement (h)
O2 consumption was calculated for body surface and expressed as ml/dm^2 /h. Body surface was calculated on the basis of the "Diack" formula: […]

benzodiazepine receptor = test: Benzodiazepine (BZD) receptor binding, 3H-diazepam displacement, crude cortical membrane preparation; conditions: crude cortical membrane, 1 hr, 0° C., TRIS-citrate buffer, pH 6.8
Method: For the studies of benzodiazepine /BZD) receptor binding crude cortical membrane preparation was used. […] ^3 H-diazepam was incubated with the membrane for 1 hr at 0° C. in TRIS-citrate buffer, pH 6.8. Specific binding was determined in the presence of 10 μM diazepam. In displacement studies chlordiazepoxide was used as control drug.

[3] = Shuttle-box, acquisition of two-way conditioned avoidance reflex; format: in vivo
Method: The acquisition of a two-way conditioned avoidance reflex (CAR) was analyzed in the shuttle-box during 5 consecutive days. […] It consists of six boxes, each is separated inside by a barrier with a small gate in the middle. […] They were given 100 trials per day. One trial consisted of 15 s intertrial interval, followed by 15 s CS. The last 5 s of CS overlapped the first s of US. At each learning session the number of CAR and intersignal reactions (IR) was automatically counted and evaluated by multiway analysis of variance (ANOVA).

Compound: O=C(CCCN1CCC(O)(c2ccc(Cl)cc2)CC1)c1ccc(F)cc1 [Haloperidol, reference compound]
- inhibition of the development of conditioned reflex [1]: strong inhibition
- rate of metabolism / O2 consumption [2]: slightly decreased

Compound: CNC1=Nc2ccc(Cl)cc2C(c2ccccc2)=[N+]([O-])C1 [Chlordiazepoxide, chlordiazepoxide, reference compound]
- displacement of 3H-diazepam specific binding (benzodiazepine receptor): displaced ^3 H-diazepam on the receptor in concentration dependent manner
- inhibition of the development of conditioned reflex [1]: does not influence the development of CR
- acquisition of conditioned reflex, number of positive responses (F) ([3]; 5 mg/kg s.c., day 1): 23.1
- number of intersignal reactions (IR) ([3]; 5 mg/kg s.c., day 1): 108
- number of negative responses (-f) ([3]; 5 mg/kg s.c., day 1): 11.8
- acquisition of conditioned reflex, number of positive responses (F) ([3]; 5 mg/kg s.c., day 2): 38.7
- number of intersignal reactions (IR) ([3]; 5 mg/kg s.c., day 2): 14.0
- number of negative responses (-f) ([3]; 5 mg/kg s.c., day 2): 9.1
- acquisition of conditioned reflex, number of positive responses (F) ([3]; 5 mg/kg s.c., day 3): 35.6
- number of intersignal reactions (IR) ([3]; 5 mg/kg s.c., day 3): 8.9
- number of negative responses (-f) ([3]; 5 mg/kg s.c., day 3): 10.2
- acquisition of conditioned reflex, number of positive responses (F) ([3]; 5 mg/kg s.c., day 4): 41.1
- number of intersignal reactions (IR) ([3]; 5 mg/kg s.c., day 4): 6.7
- number of negative responses (-f) ([3]; 5 mg/kg s.c., day 4): 14.9
- acquisition of conditioned reflex, number of positive responses (F) ([3]; 5 mg/kg s.c., day 5): 50.8
- number of intersignal reactions (IR) ([3]; 5 mg/kg s.c., day 5): 4.2
- number of negative responses (-f) ([3]; 5 mg/kg s.c., day 5): 13.0
- number of negative responses (f) (in words) ([3]; 10 mg/kg): increased
- acquisition of conditioned reflex, number of positive responses (F) ([3]; 10 mg/kg s.c., day 1): 19.9
- number of intersignal reactions (IR) ([3]; 10 mg/kg s.c., day 1): 10.8
- number of negative responses (-f) ([3]; 10 mg/kg s.c., day 1): 32.7
- acquisition of conditioned reflex, number of positive responses (F) ([3]; 10 mg/kg s.c., day 2): 37.9
- number of intersignal reactions (IR) ([3]; 10 mg/kg s.c., day 2): 14.7
- number of negative responses (-f) ([3]; 10 mg/kg s.c., day 2): 22.8
- acquisition of conditioned reflex, number of positive responses (F) ([3]; 10 mg/kg s.c., day 3): 33.7
- number of intersignal reactions (IR) ([3]; 10 mg/kg s.c., day 3): 8.1
- number of negative responses (-f) ([3]; 10 mg/kg s.c., day 3): 31.8
- acquisition of conditioned reflex, number of positive responses (F) ([3]; 10 mg/kg s.c., day 4): 35.6
- number of intersignal reactions (IR) ([3]; 10 mg/kg s.c., day 4): 6.3
- number of negative responses (-f) ([3]; 10 mg/kg s.c., day 4): 36.5
- acquisition of conditioned reflex, number of positive responses (F) ([3]; 10 mg/kg s.c., day 5): 41.2
- number of intersignal reactions (IR) ([3]; 10 mg/kg s.c., day 5): 6.1
- number of negative responses (-f) ([3]; 10 mg/kg s.c., day 5): 40.8
- acquisition of conditioned reflex, number of positive responses (F) ([3]; 25 mg/kg s.c., day 1): 9.7
- number of negative responses (-f) ([3]; 25 mg/kg s.c., day 1): 74.0
- acquisition of conditioned reflex, number of positive responses (F) ([3]; 25 mg/kg s.c., day 2): 12.2
- number of negative responses (-f) ([3]; 25 mg/kg s.c., day 2): 67.5
- acquisition of conditioned reflex, number of positive responses (F) ([3]; 25 mg/kg s.c., day 3): 17.9
- number of negative responses (-f) ([3]; 25 mg/kg s.c., day 3): 67.0
- acquisition of conditioned reflex, number of positive responses (F) ([3]; 25 mg/kg s.c., day 4): 20.0
- number of negative responses (-f) ([3]; 25 mg/kg s.c., day 4): 65.6
- acquisition of conditioned reflex, number of positive responses (F) ([3]; 25 mg/kg s.c., day 5): 21.4
- number of negative responses (-f) ([3]; 25 mg/kg s.c., day 5): 59.8
- acquisition of conditioned reflex (in words) ([3]; 10 and 5 mg/kg): unchanged
- intersignal reactions (IR) (in words) ([3]; 10 and 5 mg/kg): unchanged

Compound: CC(N)Cc1ccccc1 (stereo not drawn) [amphetamine]
- rate of metabolism / O2 consumption [2]: dose-dependently increased
